# Measurements reported in patent US20240002393A1, “SUBSTITUTED BENZO[f][l ,2,4JTRIAZOL0[4,3-a][l ,4J[…] GABA A GAMMA! POSITIVE ALLOSTERIC MODULATORS” (Hoffmann-La Roche Inc., priority 2020, published 2024).
# Several values for one entry are separate records, joined by “and”; a condition that tells them apart may be missing. Equal values may be shown once.
# Tests used:
# [1] = target: human GABAA α5β2γ1 receptor (Homo sapiens (Human), UniProt P31644+Q8N1C3); test: Radioligand binding assay, [3H]RO7239181 competition, γ1-containing GABAA subtypes; details: HEK293F membranes, mean of two determinations
# Procedure: The affinity of compounds at GABAA γ1 subunit-containing receptors was measured by competition for [^3H]RO7239181 (67.3 Ci/mmol; Roche) binding to membranes from HEK293F cells (ThermoFisher R79007) expressing human (transiently transfected) receptors of composition α5β2γ1, α2β2γ1, α1β2γ1. For better protein expression of the α2 subunit-containing receptors, the 28 amino acid long signal peptide (Met1 to Ala28) of the human GABAA α2 subunit was substituted by the 31 amino acid long signal peptide (Met1 to Ser31) of human GABAA α5 subunit.
# (§1) Harvested pellets from HEK293F cells expressing the different GABAA receptor subtypes were resuspended in Mannitol Buffer pH 7.2-7.4 (Mannitol 0.29M, Triethylamine 10 mM, Acetic acid 10 mM, EDTA 1 mM plus protease inhibitors (20 tablets Complete, Roche Diagnostics Cat. No. 05 056 489 001 per liter)), washed two times and then resuspended at 1:10 to 1:15 dilution in the same buffer. Cell disruption was performed by stirring the suspension in a Parr vessel #4637 at 435 psi for 15 minutes, and then the suspensions were centrifuged at 1000×g for 15 minutes at 4° C. (Beckman Avanti J-HC; rotor JS)-4.2). The supernatant (S1) was transferred in a 21 Schott flask and the pellet (P1) was resuspended with Mannitol Buffer up to 175 ml. The resuspended pellet was transferred into a 250 ml Corning centrifugal beaker and centrifuged at 1500×g for 10 minutes at 4° C. (Beckman Avanti J-HC; rotor JS)-4.2). The supernatant (S1) was then transferred in the 21 Schott flask and the pellet was discarded. The supernatants (S1) were centrifuged in 500 ml Beckman polypropylene centrifugal beaker at 15,000×g for 30 minutes at 4° C. (Beckman Avanti J-20 XP; rotor JLA-10.500). The pellet (P2) was resuspended with Mannitol Buffer 1:1 and frozen at −80° C. The supernatant (S2) was centrifuged in 100 ml Beckman polypropylene centrifugal tubes at 48000×g for 50 minutes at […] (Beckman Avanti J-20 XP; rotor JA-18). The supernatant (S3) was discarded and the pellet (P3) was resuspended with 1:1 Mannitol Buffer. The P2 and P3 protein concentration was determined with the BIORAD Standard assay method with bovine serum albumin as standard and measured on the NANO-Drop 1000. The membrane suspension was aliquots (500 μl per tube) and stored at −80° C. until required.
# (§2) Membrane homogenates were resuspended and polytronised (Polytron PT1200E Kinematica AG) in Potassium Phosphate 10 mM, KCl 100 mM binding buffer at pH 7.4 to a final assay concentration determined with a previous experiment.
# Radioligand binding assays were carried out in a volume of 200 µL (96-well plates) which contained 100 μL of cell membranes, [^3H]RO7239181 at a concentration of 1.5 nM (α5β2γ1) or 20-30 nM (α1β2γ1, 2β2γ1) and the test compound in the range of [0.3-10000]×10^−9 M. Nonspecific binding was defined by 10×10^−6 (α5β2γ1) and 30×10^−6 M RO7235136 and typically represented less than 5% (α5β2γ1) and less than 20% (α1β2γ1, α2β2γ1) of the total binding. Assays were incubated to equilibrium for 1 hour at 4° C. and then, membranes were filtered onto unifilter (96-well white microplate with bonded GF/C filters preincubated 20-50 minutes in 0.3% Polyethylenimine) with a Filtermate 196 harvester (Packard BioScience) and washed 4 times with cold Potassium Phosphate 10 mM pH 7.4, KCl 100 mM binding buffer. After drying, filter-retained radioactivity was detected by liquid scintillation counting. K, values were calculated using Excel-Fit (Microsoft) and are the means of two determinations.
# Representative test results, obtained by the above described assay measuring binding affinity to HEK293 cells expressing human (h) receptors, are shown in the Table 1.
# [2] = target: human GABAA α1β2γ1 receptor (Homo sapiens (Human), UniProt P14867+Q8N1C3); test: as above; details: HEK293F membranes, [3H]RO7239181 20-30 nM, mean of two determinations
# Procedure: (§3) The affinity of compounds at GABAA γ1 subunit-containing receptors was measured by competition for [^3H]RO7239181 (67.3 Ci/mmol; Roche) binding to membranes from HEK293F cells (ThermoFisher R79007) expressing human (transiently transfected) receptors of composition α5β2γ1, α2β2γ1, α1β2γ1.
# as §1, §2
# (§4) Assays were incubated to equilibrium for 1 hour at 4° C. and then, membranes were filtered onto unifilter (96-well white microplate with bonded GF/C filters preincubated 20-50 minutes in 0.3% Polyethylenimine) with a Filtermate 196 harvester (Packard BioScience) and washed 4 times with cold Potassium Phosphate 10 mM pH 7.4, KCl 100 mM binding buffer. After drying, filter-retained radioactivity was detected by liquid scintillation counting. K, values were calculated using Excel-Fit (Microsoft) and are the means of two determinations.
# [3] = target: human GABAA α2β2γ1 receptor (Homo sapiens (Human), UniProt P47869+Q8N1C3); test: as above; details: for Ki: HEK293F membranes, [3H]RO7239181 20-30 nM, mean of two determinations, read-out: Ki h-GABAA α2β2γ1; for γ2/γ1 Selectivity Ratio: Ki α1β3γ2 (nM)/Ki α2β2γ1 (nM); for LogSel: Log[Ki α1β3γ2 (nM)/Ki α2β2γ1 (nM)]
# Procedure: as §3, §1, §2, §4
# [4] = target: human GABAA α1β3γ2 receptor (Homo sapiens (Human), UniProt P14867+P18507); test: Radioligand binding assay, [3H]Flumazenil competition, γ2-containing GABAA subtypes; details: HEK293F membranes, [3H]Flumazenil 1 nM, mean of two determinations; read-out: Ki h-GABAA α1β3γ2
# Procedure: The affinity of compounds at GABAA γ2 subunit-containing receptors was measured by competition for [^3H]Flumazenil (81.1 Ci/mmol; Roche) binding to HEK293F cells expressing human (transiently transfected) receptors of composition α1β3γ2.
# Harvested pellets from HEK293F cells expressing the different GABAA γ2 receptor subtypes were resuspended in Mannitol Buffer pH 7.2-7.4 and processed as described above for the cells expressing the GABAA γ1 subunit-containing receptors.
# Assays were incubated to equilibrium for 1 hour at 4° C. and harvested onto GF/C uni-filters (Packard) by filtration using a Packard harvester and washing with ice-cold wash buffer (50 mM Tris; pH 7.5). After drying, filter-retained radioactivity was detected by liquid scintillation counting. Ki values were calculated using Exel-Fit (Microsoft) and are the means of two determinations.
SMILES,Ki [1] [nM],Ki [2] [nM],Ki [3] [nM],γ2/γ1 Selectivity Ratio [3],LogSel [3],Ki [4] [nM]
"C[C@@H]1N=C(c2ccccc2F)c2c(ccc(Br)c2Cl)-n2cnnc21 [Example 30, (4S)-8-bromo-7-chloro-6-(2-fluorophenyl)-4-methyl-4H-[1,2,4]triazolo[4,3-a][1,4]benzodiazepine]",2.6,65,43.6,13.3,1.13 and 1.1,582
"OC1N=C(c2c(F)cccc2F)c2c(ccc(Br)c2Cl)-n2cnnc21 (centres unmarked) [Example 31, 8-bromo-7-chloro-6-(2,6-difluorophenyl)-4H-[1,2,4]triazolo[4,3-a][1,4]benzodiazepin-4-ol]",2.8,39.7,41,17.3,1.24,707
"C[C@@H]1N=C(c2ccccc2F)c2c(ccc(Br)c2Cl)-n2c(-c3cccnn3)nnc21 [Example 32, (4S)-8-bromo-7-chloro-6-(2-fluorophenyl)-4-methyl-1-pyridazin-3-yl-4H-[1,2,4]triazolo[4,3-a][1,4]benzodiazepine]",1.3,33.3,10.5,98.2,1.99,1030
"OC1N=C(c2ccccc2F)c2c(ccc(Br)c2Cl)-n2c(-c3cccnn3)nnc21 (centres unmarked) [Example 35, 8-bromo-7-chloro-6-(2-fluorophenyl)-1-pyridazin-3-yl-4H-[1,2,4]triazolo[4,3-a][1,4]benzodiazepin-4-ol]",8.4,640,78.6,35.7,1.55,2800
"C[C@@H]1N=C(c2c(F)cccc2F)c2c(ccc(Br)c2Cl)-n2cnnc21 [Example 51, (4S)-8-bromo-7-chloro-6-(2,6-difluorophenyl)-4-methyl-4H-[1,2,4]triazolo[4,3-a][1,4]benzodiazepine]",0.8,9,4.9,79.5 and 80,1.9,393
"C[C@@H]1N=C(c2c(F)cccc2F)c2c(ccc(Cl)c2Cl)-n2c(-c3ccncn3)nnc21 [Example 52, (4S)-7,8-dichloro-6-(2,6-difluorophenyl)-4-methyl-1-pyrimidin-4-yl-4H-[1,2,4]triazolo[4,3-a][1,4]benzodiazepine]",1.1,10.2,5.7,112.4,2.05,638
"C[C@@H]1N=C(c2c(F)cccc2F)c2c(ccc(Cl)c2Cl)-n2c(-c3cnn(C)c3)nnc21 [Example 53, (4S)-7,8-dichloro-6-(2,6-difluorophenyl)-4-methyl-1-(1-methylpyrazol-4-yl)-4H-[1,2,4]triazolo[4,3-a][1,4]benzodiazepine]",1.1,14.4,3,82.0,1.91,246
"C[C@@H]1N=C(c2c(F)cccc2F)c2c(ccc(Cl)c2Cl)-n2c(-c3cccnn3)nnc21 [Example 56, (4S)-7,8-dichloro-6-(2,6-difluorophenyl)-4-methyl-1-pyridazin-3-yl-4H-[1,2,4]triazolo[4,3-a][1,4]benzodiazepine]",0.8,3.8,4.6,186.8,2.27,850
"C[C@@H]1N=C(c2ncccc2F)c2c(ccc(Cl)c2Cl)-n2c(-c3cccnn3)nnc21 [Example 63, (4S)-7,8-dichloro-6-(3-fluoro-2-pyridyl)-4-methyl-1-pyridazin-3-yl-4H-[1,2,4]triazolo[4,3-a][1,4]benzodiazepine]",5.6,333,39.4,103.5,2.02,4080
"COC[C@@H]1N=C(c2c(F)cccc2F)c2c(ccc(C(F)(F)F)c2Cl)-n2c(C)nnc21 [Example 105, (4R)-7-chloro-6-(2,6-difluorophenyl)-4-(methoxymethyl)-1-methyl-8-(trifluoromethyl)-4H-[1,2,4]triazolo[4,3-a][1,4]benzodiazepine]",20.1,–,99.3,73.9,1.87,7340
"Cc1nnc2n1-c1ccc(C(F)(F)F)c(Cl)c1C(c1c(F)cccc1F)=N[C@H]2CO [Example 106, [(4R)-7-chloro-6-(2,6-difluorophenyl)-1-methyl-8-(trifluoromethyl)-4H-[1,2,4]triazlo[4,3-a][1,4]benzodiazepin-4-yl]methanol]",4.3,–,71.3,107.1,2.03,7640
"C[C@@H]1N=C(c2c(F)cccc2F)c2c(ccc(C(F)(F)F)c2Cl)-n2cnnc21 [Example 107, (4S)-7-chloro-6-(2,6-difluorophenyl)-4-methyl-8-(trifluoromethyl)-4H-[1,2,4]triazolo[4,3-a][1,4]benzodiazepine]",3,–,68.3,51.8,1.71,3530
"CCc1ccc2c(c1Cl)C(c1c(F)cccc1F)=N[C@@H](C)c1nnc(C)n1-2 [Example 109, (4S)-7-chloro-6-(2,6-difluorophenyl)-8-ethyl-1,4-dimethyl-4H-[1,2,4]triazolo[4,3-a][1,4]benzodiazepine]",3.7,–,65.8,11.5,1.06,754
